The source made the active and inactive calls. The rule behind the calls is not given here.
What was measured:
MM1.S = assay: Cytotoxicity against human MM1.S cells; format: functional, cell-based
DU-145 = assay: Cytotoxicity against human DU-145 cells incubated for 72 hrs by CCK8 assay; settings: DU-145, 72 h
LNCaP = assay: Cytotoxicity against human LNCaP cells incubated for 72 hrs by CCK8 assay
[1] = target: T1, Proteasome component C5 (Homo sapiens) (UniProt P20618); assay: Inhibition of 20S proteasome beta-1 (unknown origin) upto 150 uM
T1 sequence (whole entry): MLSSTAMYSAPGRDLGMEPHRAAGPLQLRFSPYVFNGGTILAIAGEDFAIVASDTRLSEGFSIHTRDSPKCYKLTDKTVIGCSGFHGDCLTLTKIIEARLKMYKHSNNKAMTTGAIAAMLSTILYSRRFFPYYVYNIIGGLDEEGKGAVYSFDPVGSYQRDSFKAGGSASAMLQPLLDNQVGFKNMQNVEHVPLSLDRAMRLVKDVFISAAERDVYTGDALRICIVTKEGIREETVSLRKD

[2] = target: T2, Proteasome Macropain subunit MB1 (Homo sapiens, UniProt P28074); assay: Inhibition of 20S proteasome beta-5 in human erythrocytes using Suc-LLVY-AMC as substrate by AK-740 assay; parameters: species or system Erythrocyte
T2 sequence (P28074 whole entry): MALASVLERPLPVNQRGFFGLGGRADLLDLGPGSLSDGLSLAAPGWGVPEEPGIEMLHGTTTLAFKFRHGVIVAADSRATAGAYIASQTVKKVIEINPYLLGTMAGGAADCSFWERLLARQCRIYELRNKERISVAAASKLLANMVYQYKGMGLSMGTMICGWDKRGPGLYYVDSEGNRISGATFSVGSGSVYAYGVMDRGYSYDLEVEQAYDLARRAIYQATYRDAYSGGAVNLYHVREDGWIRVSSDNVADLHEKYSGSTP

Ki [2] [nM] | Structure (SMILES) | IC50 (MM1.S) [nM] | IC50 (DU-145) [nM] | IC50 (LNCaP) [nM] | inhibition [1]
– | CC(C)[C@H](NC(=O)N[C@H](C(=O)N[C@H]1/C=C/CCNC(=O)/C=C/[C@H](C(C)C)NC1=O)C(C)C)C(=O)O | 8500 | – | – | –
– | CCCCCCCCCC(=O)N[C@@H](Cc1ccccc1)C(=O)N[C@H]1CCCCNC(=O)/C=C/[C@H](Cc2ccc(NC(=N)N)cc2)NC1=O | – | > 1000 | > 1000 | –
– | CCCCCCCCCC(=O)N[C@@H](Cc1ccccc1)C(=O)N[C@H]1CCCCNC(=O)/C=C/[C@H](Cc2ccc(CN(C)C)cc2)NC1=O | – | > 1000 | > 1000 | –
– | CCCCCCCCCC(=O)N[C@@H](Cc1ccccc1)C(=O)N[C@H]1CCCCNC(=O)/C=C/[C@H](Cc2ccc(N)cc2)NC1=O | – | 292 | 181 | –
– | CCCCCCCCCC(=O)N[C@@H](Cc1ccccc1)C(=O)N[C@H]1CCCCNC(=O)/C=C/[C@H](Cc2ccc(C(N)=O)cc2)NC1=O | – | > 1000 | > 1000 | –
– | CCCCCCCCCC(=O)N[C@@H](Cc1ccccc1)C(=O)N[C@H]1CCCCNC(=O)/C=C/[C@H](Cc2ccc(N(C)C)cc2)NC1=O | – | 101 | 94 | –
– | CCCCCCCCCC(=O)N[C@@H](Cc1ccccc1)C(=O)N[C@H]1CCCCNC(=O)/C=C/[C@H](Cc2ccc(O)cc2)NC1=O | – | > 1000 | 575 | –
– | CC(C)[C@H](NC(=O)N[C@H](C(=O)N[C@H]1CCCCNC(=O)/C=C/[C@H](C(C)C)NC1=O)C(C)C)C(=O)O | – | – | – | inactive
– | CCCCCCCCCC(=O)N[C@@H](Cc1ccccc1)C(=O)N[C@H]1CCCCNC(=O)/C=C/[C@H](Cc2ccc(CC(=N)N)cc2)NC1=O | – | > 1000 | > 1000 | –
– | CCCCCCCCCC(=O)N[C@@H](Cc1ccccc1)C(=O)N[C@H]1CCCCNC(=O)/C=C/[C@H](Cc2ccc(CN)cc2)NC1=O | – | > 1000 | > 1000 | –
– | CCCCCCCCCC(=O)N[C@@H](Cc1ccccc1)C(=O)N[C@H]1CCCCNC(=O)/C=C/[C@H](Cc2ccc(C#N)cc2)NC1=O | – | > 1000 | 920 | –
– | CCCCCCCCCC(=O)N[C@@H](Cc1ccccc1)C(=O)N[C@H]1CCCCNC(=O)/C=C/[C@H](Cc2ccc(B(O)O)cc2)NC1=O | – | 723 | 882 | –
– | CCCCCCCCCC(=O)N[C@@H](Cc1ccccc1)C(=O)N[C@H]1CCCCNC(=O)/C=C/[C@H](Cc2ccc(C(=O)O)cc2)NC1=O | – | > 1000 | > 1000 | –
– | CCCCCCCCCC(=O)N[C@@H](Cc1ccccc1)C(=O)N[C@H]1CCCCNC(=O)/C=C/[C@H](CC(=O)O)NC1=O | – | > 1000 | > 1000 | –
> 10000 | CCCCCCCCCC(=O)N[C@@H](Cc1ccccc1)C(=O)N[C@H]1CCCCNC(=O)/C=C/[C@H](CCC(=O)O)NC1=O | – | > 1000 | > 1000 | –
– | CCCCCCCCCC(=O)N[C@@H](Cc1ccccc1)C(=O)N[C@H]1CCCCNC(=O)/C=C/[C@H](C(C)C)NC1=O | – | 119 | 91.2 | –
– | CCCCCCCCCC(=O)N[C@@H](Cc1ccccc1)C(=O)N[C@H]1CCCCNC(=O)/C=C/[C@H](Cc2ccc(NC)cc2)NC1=O | – | 142 | 103 | –
– | CCCCCCCCCC(=O)N[C@@H](Cc1ccccc1)C(=O)N[C@H]1CCCCNC(=O)/C=C/[C@H](Cc2ccc([N+](=O)[O-])cc2)NC1=O | – | > 1000 | > 1000 | –
– | CCCCCCCCCC(=O)N[C@@H](Cc1ccccc1)C(=O)N[C@H]1CCCCNC(=O)/C=C/[C@H](Cc2ccc(OC)cc2)NC1=O | – | 487 | 116 | –
– | CCCCCCCCCC(=O)N[C@@H](Cc1ccccc1)C(=O)N[C@H]1CCCCNC(=O)/C=C/[C@H](Cc2ccccc2)NC1=O | – | 49.1 | 43.5 | –

From ChEMBL document CHEMBL5550143, “Modulation of proteasome subunit selectivity of syringolins” (Bioorg Med Chem, 2024)
